{"source": "patent US7144879B2", "about": "“Substituted metal-phthalocyanines, their preparation and the use thereof” (L. Molteni & C. Dei Fratelli, priority 2000, dated 2006)", "assay_type_in_all_cases": "cell-based", "key": {"[1]": {"tested_on": "erythrocytes", "assay": "Haemolytic properties, dark and light treatment", "settings": "for % Haemolysis (Light treatment) 30 J/cm^2 (50 mW/cm^2 × 10 min): light 30 J/cm^2 (50 mW/cm^2 × 10 min)"}, "[2]": {"tested_on": "3T3 cells", "assay": "Survival of 3T3 cells (model of mammalian cells) after photodynamic treatment", "settings": "red light 650-750 nm, 50 mW/cm^2, PBS +5% DMSO, 5 min pre-incubation", "procedure": "(§1) The irradiation is carried out with red light (650-750 nm), 50 mW/cm^2."}, "[3]": {"tested_on": "Staphylococcus aureus (ATCC 6538P, MRSA; Gram-positive)", "assay": "Photoinactivation of S. aureus (MRSA), survival after photodynamic treatment", "settings": "red light 650-750 nm, 50 mW/cm^2, PBS +5% DMSO, 5 min pre-incubation", "text": "(§2) The compounds synthesized have been assayed for their antifungal and antibacterial (Gram-positive e Gram-negative) activity. For the experiments the following micro-organisms were used: Candida albicans (ATCC10231; yeast), Staphylococcus aureus (ATCC 6538P, MRSA; Gram-positive), Escherichia coli (04; Gram-negative). All the micro-organisms were used in the experiments in a stationary state of growth. An example of experimental protocol used to assess the photoinactivation of micro-organisms is described as follows.\n(§3) Cells in a stationary state of growth have been washed in physiological buffered saline solution (PBS) and diluted in order to obtain a cell suspension in the range 10^6÷10^9 cells/ml in PBS or appropriate medium.\n(§4) Cell suspensions have then been treated with scalar aliquots of the photosensitising agent to be tested in the range 30÷0.01 μM, eventually as a photosensitizer conjugate. […] In order to determine the percentage of cell population after photoinactivation for each photosensitizer concentration, serially diluted samples resulting from the irradiation have been plated on Sabouraud Dextrose Agar (C. Albicans), on Tryptic Soy Agar (S. aureus), or on other suitable culture media and the data were compared with dark controls.\nas §1"}, "[4]": {"tested_on": "Escherichia coli (04; Gram-negative)", "assay": "Photoinactivation of E. coli, survival after photodynamic treatment", "settings": "red light 650-750 nm, 50 mW/cm^2, PBS +5% DMSO, 5 min pre-incubation", "text": "as §2, §3, §4, §1"}, "[5]": {"tested_on": "Candida albicans (ATCC10231; yeast)", "assay": "Photoinactivation of C. albicans, survival after photodynamic treatment", "settings": "1 μM, red light 650-750 nm, 50 mW/cm^2, PBS +5% DMSO, 10 min pre-incubation", "text": "as §2, §3, §4, §1"}}, "data": [{"molecule": "CN1CCC(Oc2ccc3c4[n]5c(c3c2)=NC2=NC(=Nc3c6ccccc6c([n]3[Zn]5)N=C3N=C(N=4)c4ccccc43)c3ccccc32)CC1", "note": "[Compound 4]", "values": [{"measurement": "% Haemolysis (Dark treatment)", "setting": "[1]; concentration 0.5 μM", "result": 4.7, "unit": "%"}, {"measurement": "% Haemolysis (Light treatment) 30 J/cm^2 (50 mW/cm^2 × 10 min)", "setting": "[1]; concentration 0.5 μM", "result": 0.9, "unit": "%"}, {"measurement": "% Haemolysis (Dark treatment)", "setting": "[1]; concentration 1 μM", "result": 1.5, "unit": "%"}, {"measurement": "% Haemolysis (Light treatment) 30 J/cm^2 (50 mW/cm^2 × 10 min)", "setting": "[1]; concentration 1 μM", "result": 1.2, "unit": "%"}, {"measurement": "% Haemolysis (Dark treatment)", "setting": "[1]; concentration 5 μM", "result": 1.5, "unit": "%"}, {"measurement": "% Haemolysis (Light treatment) 30 J/cm^2 (50 mW/cm^2 × 10 min)", "setting": "[1]; concentration 5 μM", "result": 1.5, "unit": "%"}]}, {"molecule": "2[1,3-bis-(trimethylammonium)2-propyloxy]zinc(II) phtalocyanine diiodide [Compound 18]", "values": [{"measurement": "Survival (%)", "setting": "[2]; 1 μM, irradiation 1 min", "result": 100, "unit": "%"}, {"measurement": "Survival (%)", "setting": "[2]; 1 μM, irradiation 5 min", "result": 97, "unit": "%"}, {"measurement": "Survival (%)", "setting": "[2]; 10 μM, irradiation 1 min", "result": 100, "unit": "%"}, {"measurement": "Survival (%)", "setting": "[2]; 10 μM, irradiation 5 min", "result": 94, "unit": "%"}, {"measurement": "Survival (%)", "setting": "[3]; 1 μM, irradiation 1 min", "result": 0.0002, "unit": "%"}, {"measurement": "Survival (%)", "setting": "[3]; 1 μM, irradiation 5 min", "result": 0.0001, "unit": "%"}, {"measurement": "Survival (%)", "setting": "[3]; 10 μM, irradiation 1 min", "result": 0.0001, "unit": "%"}, {"measurement": "Survival (%)", "setting": "[3]; 10 μM, irradiation 5 min", "result": 0.0001, "unit": "%"}, {"measurement": "Survival (%)", "setting": "[4]; 1 μM, irradiation 1 min", "result": 100, "unit": "%"}, {"measurement": "Survival (%)", "setting": "[4]; 1 μM, irradiation 5 min", "result": 100, "unit": "%"}, {"measurement": "Survival (%)", "setting": "[4]; 10 μM, irradiation 1 min", "result": 100, "unit": "%"}, {"measurement": "Survival (%)", "setting": "[4]; 10 μM, irradiation 5 min", "result": 2.34, "unit": "%"}, {"measurement": "Survival (%)", "setting": "[5]; irradiation 1 min", "result": 0.0001, "unit": "%"}, {"measurement": "Survival (%)", "setting": "[5]; irradiation 5 min", "result": 0.0001, "unit": "%"}]}]}
